In US8389442B2, “N-phenyl-′(4-pyridyl)-azinyl!amine derivatives as plant protection agents” (Syngenta Crop Protection LLC, priority 2003, dated 2013):

Compound COCC(C)Nc1cc(-c2ccnc(Nc3cccc(Cl)c3)c2)ccn1 (stereo not shown) [Compound A1.10, N*2′*-(3-Chloro-phenyl)-N*2*-(2-methoxy-1-methyl-ethyl)-[4,4′]bipyridinyl-2,2′-diamine] has a melting point of 110 °C.
